Values quoted from earlier work, collected in patent US20080261937A1, “PHARMACEUTICAL COMPOSITIONS AND METHOD FOR TREATING PEDIATRIC HYPOGONADISM” (priority 2007, published 2008).

SMILES: C[C@]12CC[C@H]3[C@@H](CCC4=CC(=O)CC[C@@]43C)[C@@H]1CC[C@@H]2O [testosterone]
- bound to proteins in the blood (circulating testosterone): 98%
- share bound weakly to albumin (in males): 60%
- share of binding to sex hormone binding globulin (SHBG) (in males): approximately 40%
